Ratio and ED50 data for 11 compounds are collected here from ChEMBL document CHEMBL1127579, “Novel, potent luteinizing hormone-releasing hormone antagonists with improved solubility in water” (1994).

Common to all, as to format: functional
Assay [1] is filed under the species Rattus norvegicus. The assay can be described thus: Antiovulatory activity expressed as ratio of rats ovulated/total rats at a dose of 0.5 microg; 9/25.
The species named for assay [2] is Rattus norvegicus. The assay can be described thus: Evaluated for histamine releasing activity.
For assay [3], the species on record is Rattus norvegicus. Briefly: Antiovulatory activity expressed as ratio of rats ovulated/total rats at a dose of 1.0 ug; 0/10.
For assay [4], the species on record is Rattus norvegicus. Briefly: Antiovulatory activity expressed as ratio of rats ovulated/total rats at a dose of 0.5 microg; 5/8.
The species entered for assay [5] is Rattus norvegicus. The assay can be described thus: Antiovulatory activity expressed as ratio of rats ovulated/total rats at a dose of 0.5 microg; 2/5.
For assay [6], the species on record is Rattus norvegicus. Briefly: Antiovulatory activity expressed as ratio of rats ovulated/total rats at a dose of 0.25 microg; 6/10.
The species entered for assay [7] is Rattus norvegicus. The assay can be described thus: Antiovulatory activity expressed as ratio of rats ovulated/total rats at a dose of 0.5 microg; 0/10.
The species entered for assay [8] is Rattus norvegicus. The assay can be described thus: Antiovulatory activity expressed as ratio of rats ovulated/total rats at a dose of 0.5 microg; 5/6.
The species entered for assay [9] is Rattus norvegicus. The assay can be described thus: Antiovulatory activity expressed as ratio of rats ovulated/total rats at a dose of 0.5 microg; 6/7.
For assay [10], the species on record is Rattus norvegicus. The assay can be described thus: Antiovulatory activity expressed as ratio of rats ovulated/total rats at a dose of 0.5 microg; 3/8.
The species entered for assay [11] is Rattus norvegicus. Briefly: Antiovulatory activity expressed as ratio of rats ovulated/total rats at a dose of 1.0 ug; 0/8.
The species named for assay [12] is Rattus norvegicus. Briefly: Antiovulatory activity expressed as ratio of rats ovulated/total rats at a dose of 0.5 microg; 3/6.
For assay [13], the species on record is Rattus norvegicus. Briefly: Antiovulatory activity expressed as ratio of rats ovulated/total rats at a dose of 0.5 microg; 4/5.
For assay [14], the species on record is Rattus norvegicus. The assay can be described thus: Antiovulatory activity expressed as ratio of rats ovulated/total rats at a dose of 1.0 ug; 0/6.
The species named for assay [15] is Rattus norvegicus. The assay can be described thus: Antiovulatory activity expressed as ratio of rats ovulated/total rats at a dose of 0.5 microg; 2/6.
The species entered for assay [16] is Rattus norvegicus. Briefly: Antiovulatory activity expressed as ratio of rats ovulated/total rats at a dose of 0.25 microg; 2/12.
Assay [17] is filed under the species Rattus norvegicus. Briefly: Antiovulatory activity expressed as ratio of rats ovulated/total rats at a dose of 0.25 microg; 3/7.
For assay [18], the species on record is Rattus norvegicus. The assay can be described thus: Antiovulatory activity expressed as ratio of rats ovulated/total rats at a dose of 0.5 microg; 2/12.

In brackets after ≈: the same amount, converted by molar mass. Some results are limits rather than exact numbers.

Regarding `CC(=O)N[C@H](Cc1ccc2ccccc2c1)C(=O)N[C@H](Cc1ccc(Cl)cc1)C(=O)N[C@H](Cc1cccnc1)C(=O)N[C@@H](CO)C(=O)N[C@@H](CCCCNC(=O)c1cccnc1)C(=O)N[C@H](CCCCNC(=O)c1cccnc1)C(=O)N[C@@H](CC(C)C)C(=O)N[C@@H](CCCCN)C(=O)N1CCC[C@H]1C(=O)N[C@H](C)C(=O)O`, the Ratio in the assay filed under Rattus norvegicus [1] turned out to be 9; in the assay filed under Rattus norvegicus [3] it was 0. This compound also yielded an ED50 in the assay listed under Rattus norvegicus [2] of more than 300 µg/mL.
In the case of `CC(=O)N[C@H](Cc1ccc2ccccc2c1)C(=O)N[C@H](Cc1ccc(Cl)cc1)C(=O)N[C@H](Cc1cccnc1)C(=O)N[C@@H](CO)C(=O)N[C@@H](CCCCNC(=O)c1cccnc1)C(=O)N[C@H](CCCCNC(=O)c1ccccn1)C(=O)N[C@@H](CC(C)C)C(=O)N[C@@H](CCCCN)C(=O)N1CCC[C@H]1C(=O)N[C@H](C)C(=O)O`, the ED50 in the assay listed under Rattus norvegicus [2] came to 60 µg/mL (≈ 38.7 µM). For the same compound, the Ratio in the assay listed under Rattus norvegicus [4] was found to be 5.
Turning to `CC(=O)N[C@H](Cc1ccc2ccccc2c1)C(=O)N[C@H](Cc1ccc(Cl)cc1)C(=O)N[C@H](Cc1cccnc1)C(=O)N[C@@H](CO)C(=O)N[C@@H](CCCCNC(=O)c1ccccn1)C(=O)N[C@H](CCCCNC(=O)c1cccnc1N)C(=O)N[C@@H](CC(C)C)C(=O)N[C@@H](CCCCNC(C)C)C(=O)N1CCC[C@H]1C(=O)N[C@H](C)C(=O)O`, in the assay filed under Rattus norvegicus [5], the Ratio is given as 2.
With `CC(=O)N[C@H](Cc1ccc2ccccc2c1)C(=O)N[C@H](Cc1ccc(Cl)cc1)C(=O)N[C@H](Cc1cccnc1)C(=O)N[C@@H](CO)C(=O)N[C@@H](CCCCNC(=O)c1ccccn1)C(=O)N[C@H](CCCCNC(=O)c1ccccn1)C(=O)N[C@@H](CC(C)C)C(=O)N[C@@H](CCCCN)C(=O)N1CCC[C@H]1C(=O)N[C@H](C)C(=O)O`, the Ratio is recorded as 6 in the assay listed under Rattus norvegicus [6] and 0 in the assay listed under Rattus norvegicus [7]. In addition, the ED50 in the assay filed under Rattus norvegicus [2] turned out to be 93 µg/mL (≈ 60 µM).
As to `CC(=O)N[C@H](Cc1ccc2ccccc2c1)C(=O)N[C@H](Cc1ccc(Cl)cc1)C(=O)N[C@H](Cc1cccnc1)C(=O)N[C@@H](CO)C(=O)N[C@@H](CCCCNC(=O)c1cnccn1)C(=O)N[C@H](CCCCNC(=O)c1cnccn1)C(=O)N[C@@H](CC(C)C)C(=O)N[C@@H](CCCCN)C(=O)N1CCC[C@H]1C(=O)N[C@H](C)C(=O)O`, the Ratio in the assay filed under Rattus norvegicus [8] worked out at 5.
As for `CC(=O)N[C@H](Cc1ccc2ccccc2c1)C(=O)N[C@H](Cc1ccc(Cl)cc1)C(=O)N[C@H](Cc1cccnc1)C(=O)N[C@@H](CO)C(=O)N[C@@H](CCCCNC(=O)c1nccnc1N)C(=O)N[C@H](CCCCNC(=O)c1nccnc1N)C(=O)N[C@@H](CC(C)C)C(=O)N[C@@H](CCCCNC(C)C)C(=O)N1CCC[C@H]1C(=O)N[C@H](C)C(=O)O`, in the assay listed under Rattus norvegicus [9], the Ratio was 6.
Take `CC(=O)N[C@H](Cc1ccc2ccccc2c1)C(=O)N[C@H](Cc1ccc(Cl)cc1)C(=O)N[C@H](Cc1cccnc1)C(=O)N[C@@H](CO)C(=O)N[C@@H](CCCCNC(=O)c1ccccn1)C(=O)N[C@H](CCCCNC(=O)c1cccnc1)C(=O)N[C@@H](CC(C)C)C(=O)N[C@@H](CCCCN)C(=O)N1CCC[C@H]1C(=O)N[C@H](C)C(=O)O`: the Ratio in the assay filed under Rattus norvegicus [10] is listed as 3; in the assay listed under Rattus norvegicus [11], 0. The same compound returned an ED50 in the assay filed under Rattus norvegicus [2] of 39 µg/mL (≈ 25.2 µM).
On to `CC(=O)N[C@H](Cc1ccc2ccccc2c1)C(=O)N[C@H](Cc1ccc(Cl)cc1)C(=O)N[C@H](Cc1cccnc1)C(=O)N[C@@H](CO)C(=O)N[C@@H](CCCCNC(=O)c1cnccn1)C(=O)N[C@H](CCCCNC(=O)c1ccccn1)C(=O)N[C@@H](CC(C)C)C(=O)N[C@@H](CCCCN)C(=O)N1CCC[C@H]1C(=O)N[C@H](C)C(=O)O`, for which the Ratio in the assay filed under Rattus norvegicus [12] is 3.
As for `CC(=O)N[C@H](Cc1ccc2ccccc2c1)C(=O)N[C@H](Cc1ccc(Cl)cc1)C(=O)N[C@H](Cc1cccnc1)C(=O)N[C@@H](CO)C(=O)N[C@@H](CCCNC(=O)c1cnccn1)C(=O)N[C@H](CCCNC(=O)c1ccc(N)nc1)C(=O)N[C@@H](CC(C)C)C(=O)N[C@@H](CCCN=C(N)N)C(=O)N1CCC[C@H]1C(=O)N[C@H](C)C(=O)O`, the Ratio in the assay listed under Rattus norvegicus [13] is on record as 4.
Regarding `CC(=O)N[C@H](Cc1ccc2ccccc2c1)C(=O)N[C@H](Cc1ccc(Cl)cc1)C(=O)N[C@H](Cc1cccnc1)C(=O)N[C@@H](CO)C(=O)N[C@@H](CCCCNC(=O)c1ccccn1)C(=O)N[C@H](CCCCNC(=O)c1ccc(N)nc1)C(=O)N[C@@H](CC(C)C)C(=O)N[C@@H](CCCN=C(N)N)C(=O)N1CCC[C@H]1C(=O)N[C@H](C)C(=O)O`, the Ratio is on record as 0 in the assay filed under Rattus norvegicus [14], 2 in the assay listed under Rattus norvegicus [15] and 2 in the assay filed under Rattus norvegicus [16]. For the same compound, the ED50 in the assay filed under Rattus norvegicus [2] is 8 µg/mL (≈ 5.02 µM).
Take `CC(=O)N[C@H](Cc1ccc2ccccc2c1)C(=O)N[C@H](Cc1ccc(Cl)cc1)C(=O)N[C@H](Cc1cccnc1)C(=O)N[C@@H](CO)C(=O)N[C@@H](CCCCNC(=O)c1ccccn1)C(=O)N[C@H](CCCCNC(=O)c1ccc(N)nc1)C(=O)N[C@@H](CC(C)C)C(=O)N[C@@H](CCCCNC(C)C)C(=O)N1CCC[C@H]1C(=O)N[C@H](C)C(=O)O`: the figures for the Ratio in the assay listed under Rattus norvegicus [17], in the assay listed under Rattus norvegicus [14] and in the assay filed under Rattus norvegicus [18] were 3, 0 and 2, respectively. In the assay filed under Rattus norvegicus [2], the ED50 came to 96 µg/mL (≈ 59.7 µM).
